Some test systems named below: CCRF-CEM leukemia; HCT-116 colon; HOP-62 NSCLC; KM12 colon; NCI-H522 lung; SK-MEL-28 melanoma; SN12C renal; NCI-H226 lung.
Common to all, as to experiment: NCI anticancer screen, dose series, 48 h

GI50 and TGI data for twelve compounds are collected here from PubChem BioAssay (NCI).

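Five compound concentrations were applied to cells in 96-well plates for 48 hours; endpoints were derived by simple linear interpolation of the resulting dose-response curve. GI50: concentration for 50% inhibition of growth. TGI marks complete inhibition of growth.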

For the compound `COc1ccc(-c2c3c(nc4n[nH]c(-c5ccc(Cl)cc5)c24)-c2ccccc2C(=O)C3=O)cc1`, the GI50 in the experiment with CCRF-CEM leukemia is 2.55 µM; in the experiment with HCT-116 colon, 1.01 µM; with HOP-62 NSCLC it was 1.56 µM; in the experiment with KM12 colon, 1.62 µM; with NCI-H522 lung, 1.43 µM; in the experiment with SK-MEL-28 melanoma it was 1.84 µM. Also, the GI50 with SN12C renal was 1.66 µM. Also, the TGI is over 100 µM with CCRF-CEM leukemia; 2.48 µM in the experiment with HCT-116 colon; 2.96 µM in the experiment with HOP-62 NSCLC; 3.16 µM in the experiment on KM12 colon; 2.99 µM in the experiment on NCI-H522 lung; 3.9 µM with SK-MEL-28 melanoma. For the same compound, the TGI with SN12C renal is 3.82 µM.

Turning to `CCC(C)C(=O)OCC(=O)c1ccc(-c2ccccc2)cc1` (stereo unspecified), the TGI was over 100 µM in the experiment on CCRF-CEM leukemia; over 100 µM with HCT-116 colon; over 100 µM in the experiment on HOP-62 NSCLC; over 100 µM in the experiment on KM12 colon; 74.9 µM with NCI-H522 lung; over 100 µM in the experiment on SK-MEL-28 melanoma. The compound further gave a TGI in the experiment on SN12C renal of over 100 µM.

As for `CCCCOC1OC(COC(=O)C(C)C)C(OC(=O)C(C)C)C(O)C1OC1OC(C)C(OC(=O)CCC)C(OC(=O)C(C)C)C1O` (stereo unspecified), the GI50 in the experiment with CCRF-CEM leukemia was 10.8 µM; in the experiment on HCT-116 colon, 6.41 µM; with HOP-62 NSCLC, 14.3 µM; with KM12 colon, 15.1 µM; in the experiment on NCI-H226 lung, 9.64 µM; with NCI-H522 lung it was 19.1 µM. The GI50 with SK-MEL-28 melanoma is 16.2 µM. In addition, the TGI with CCRF-CEM leukemia was 24.1 µM; in the experiment with HCT-116 colon, 18.4 µM; with HOP-62 NSCLC it was 27.4 µM; in the experiment with KM12 colon, 29 µM; in the experiment with NCI-H226 lung, 22.2 µM; in the experiment with NCI-H522 lung, 39.6 µM. In addition, in the experiment with SK-MEL-28 melanoma, the TGI was 30 µM.

As to `CN(CCC(=O)/C(=C\c1ccccc1)c1ccc(Cl)cc1)Cc1ccccc1`, the GI50 is 1.44 µM with CCRF-CEM leukemia; 2.35 µM in the experiment on HCT-116 colon; 2.87 µM in the experiment with HOP-62 NSCLC; 3.07 µM in the experiment with KM12 colon; 2.44 µM with NCI-H226 lung; 1.69 µM in the experiment with NCI-H522 lung. For the same compound, the GI50 with SN12C renal was 2.38 µM. The TGI was found to be 6.91 µM in the experiment on CCRF-CEM leukemia; 5.73 µM with HCT-116 colon; 7.46 µM in the experiment on HOP-62 NSCLC; 11 µM in the experiment on KM12 colon; 5.53 µM with NCI-H226 lung; 3.19 µM in the experiment with NCI-H522 lung. This compound had a TGI in the experiment on SN12C renal of 6.39 µM.

Take `Cc1cc(Cl)ccc1C(=O)c1ccc2ccccc2c1C(=O)O`: the TGI in the experiment on CCRF-CEM leukemia, in the experiment on HCT-116 colon, in the experiment on KM12 colon, in the experiment on NCI-H226 lung, with NCI-H522 lung and in the experiment on SK-MEL-28 melanoma was over 100 µM in each case.

Regarding `O=C(O)c1c(Br)c(Br)c(Br)c(Br)c1C1c2ccc(O)cc2Oc2cc(O)ccc21`, the TGI with HCT-116 colon, with HOP-62 NSCLC, with KM12 colon, with NCI-H226 lung, in the experiment on NCI-H522 lung and in the experiment with SK-MEL-28 melanoma was over 100 µM in each case. In the experiment on SN12C renal, this compound yielded a TGI of over 100 µM.

With `O=C1c2cccnc2C(=O)c2c1c(C(=O)OCCCN1CCCCC1)c1ccccn21`, the GI50 was 0.0706 µM with CCRF-CEM leukemia; under 0.0106 µM in the experiment on HCT-116 colon; under 0.01 µM with HOP-62 NSCLC; under 0.0185 µM in the experiment on KM12 colon; under 0.01 µM with NCI-H226 lung; under 0.01 µM in the experiment on NCI-H522 lung. The GI50 in the experiment with SK-MEL-28 melanoma was 0.034 µM. Further, the TGI in the experiment on HCT-116 colon was 0.275 µM; with HOP-62 NSCLC, 0.0203 µM; with KM12 colon, 0.165 µM; in the experiment with NCI-H226 lung, 0.0318 µM; in the experiment on NCI-H522 lung it was under 0.0156 µM; in the experiment on SK-MEL-28 melanoma, 3.74 µM.

`Nc1nc(N)c2nc3c(nc2n1)CCCCCCCCCC3`: the GI50 in the experiment on CCRF-CEM leukemia is 6.24 µM; in the experiment on HCT-116 colon it was 0.379 µM; in the experiment with HOP-62 NSCLC, 4.47 µM; with KM12 colon it was 8.6 µM; in the experiment with NCI-H226 lung, 19 µM; with SK-MEL-28 melanoma, over 100 µM. Moreover, the GI50 in the experiment with SN12C renal is 7.04 µM. In addition, the TGI in the experiment with CCRF-CEM leukemia, with HCT-116 colon, in the experiment on HOP-62 NSCLC, with KM12 colon, in the experiment with NCI-H226 lung and in the experiment with SK-MEL-28 melanoma was over 100 µM throughout. The compound further had a TGI with SN12C renal of over 100 µM.

For `O=[N+]([O-])c1cc2no[n+]([O-])c2cc1N1CCCCC1`, the TGI was over 100 µM in the experiment with CCRF-CEM leukemia; 5.99 µM in the experiment on HCT-116 colon; 31.3 µM in the experiment with HOP-62 NSCLC; 30.5 µM in the experiment on KM12 colon; over 100 µM in the experiment on NCI-H226 lung; 32.9 µM in the experiment on SK-MEL-28 melanoma. This compound gave a TGI in the experiment with SN12C renal of 4.34 µM.

As for `CN(C)c1cccc(F)c1C(=O)NC(=O)Nc1ccc(Cl)cc1`, the TGI is over 100 µM in the experiment on HCT-116 colon; over 100 µM with HOP-62 NSCLC; over 100 µM in the experiment on KM12 colon; over 100 µM in the experiment on NCI-H226 lung; 5.77 µM in the experiment on NCI-H522 lung; over 100 µM with SK-MEL-28 melanoma. This compound gave a TGI in the experiment with SN12C renal of over 100 µM.

Regarding `COc1cnc2c(c1)C(=O)c1c-2n(CCCN2CCC(O)CC2)c(=O)c2cc(Cl)ccc12`, the GI50 in the experiment with CCRF-CEM leukemia was 0.066 µM; in the experiment on HCT-116 colon, 0.0987 µM; with HOP-62 NSCLC, 0.0942 µM; in the experiment with KM12 colon, 1.43 µM; with NCI-H226 lung, 0.662 µM; in the experiment on NCI-H522 lung it was 0.11 µM. Also, the GI50 with SK-MEL-28 melanoma is 16.7 µM. Moreover, the TGI in the experiment on CCRF-CEM leukemia is over 100 µM; in the experiment on HCT-116 colon, 2.18 µM; in the experiment with HOP-62 NSCLC, 17.1 µM; with KM12 colon it was 3.64 µM; with NCI-H226 lung, 23.6 µM; in the experiment with NCI-H522 lung, 2.02 µM. The compound also registered a TGI in the experiment on SK-MEL-28 melanoma of 35.7 µM.

With `NC(CSSCC(N)C(=O)O)C(=O)O` (stereo unspecified), the GI50 in the experiment on CCRF-CEM leukemia, in the experiment on HCT-116 colon, with HOP-62 NSCLC, in the experiment on KM12 colon, in the experiment on NCI-H226 lung and in the experiment with SK-MEL-28 melanoma was over 100 µM throughout. For the same compound, in the experiment on SN12C renal, the GI50 was over 100 µM. Also, the TGI in the experiment on CCRF-CEM leukemia, with HCT-116 colon, in the experiment with HOP-62 NSCLC, in the experiment on KM12 colon, in the experiment on NCI-H226 lung and in the experiment on SK-MEL-28 melanoma was over 100 µM in each case. The same compound yielded a TGI in the experiment on SN12C renal of over 100 µM.
